Experimental data from patent US6706663B2, “Herbicidal 3-heterocyclic substituted benzisothiazole and benzisoxazole compounds” (Wyeth, priority 2000, dated 2004).

Test system: GLXMA (Soybean)
Test: Postemergence herbicidal evaluation
Assay type: in vivo, Glycine max, (L.) Merr.
Conditions: for GLXMA herbicidal rating: postemergence
Protocol: In the tests, seedling plants are grown in jiffy flats for about two weeks. The test compounds are dispersed in 50/50 acetone/water mixtures containing 0.5% TWEEN® 20, a polyoxyethylene sorbitan monolaurate surfactant of Atlas Chemical Industries, in sufficient quantities to provide the equivalent of about 0.0040 kg to 1.000 kg per hectare of active compound when applied to the plants through a spray nozzle operating at 40 psi for a predetermined time. After spraying, the plants are placed on greenhouse benches and are cared for in accordance with conventional greenhouse procedures. From four to five weeks after treatment, the seedling plants are examined and rated according to the rating system set forth below. Where more than one test is involved for a given compound, the data are averaged.
Results of herbicide evaluation are expressed on a rating scale (0-9). The scale is based upon a visual observation of plant stand, vigor, malformation, size, chlorosis and overall plant appearance as compared with a control.

| SMILES | Postemergence herbicidal rating, GLXMA (rate 0.0320 kg/ha) | GLXMA herbicidal rating (rate 0.0320 kg/ha) | GLXMA herbicidal rating (rate 0.0620 kg/ha) |
| --- | --- | --- | --- |
| Cc1ccsc1-c1nsc2ccc(-n3c(=O)cc(C(F)(F)F)n(C)c3=O)cc12 [Compound 4, 1-methyl-3-[3-(3-methyl-2-thienyl)-1,2-benzisothiazol-5-yl]-6-(trifluoromethyl)uracil] | 9.0 |  |  |
| Cn1c(C(F)(F)F)cc(=O)n(-c2cc3c(C4OCCO4)nsc3cc2F)c1=O [Compound 61, 3-[3-(1,3-dioxolan-2-yl)-6-fluoro-1,2-benzisothiazol-5-yl]-1-methyl-6-(trifluoromethyl)uracil] |  | 8.5 | 8.5 |
